Where “and” joins values, the source holds several entries; their conditions need not be identical. Identical values can stand only once.
`O=C(CC(=O)c1ccccc1)c1ccccc1` [1,3-diphenyl-1,3-propanedione] showed a melting point of 78 °C. With `N#CCc1cccc(CC#N)c1` [1,3-phenylenediacetonitrile] the melting point was 34 °C. In the case of `O=S1(=O)CCCO1` [1,3-propanesultone], the melting point was 32 °C. `O=C1CCC(C(=O)O)=NN1` [1,4,5,6-tetrahydro-6-oxopyridazine-3-carboxylic acid] showed a melting point of 197 °C. Compound `Nc1ccc(N)c2c1C(=O)c1c(N)ccc(N)c1C2=O` [1,4,5,8-Tetraamino-9,10-anthraquinone] has a melting point of 332 °C. `CN1CCCN(C)CCN(C)CCCN(C)CC1` [1,4,8,11-tetramethyl-1,4,8,11-tetraazacyclotetradecane] showed a melting point of 35 °C. `CCCCCCCCCCCCCCCCCC(=O)OC[C@@H](O)[C@H]1OC[C@H](O)[C@H]1O` [1,4-Anhydro-6-O-stearoyl-D-glucitol] gave a melting point of 57 °C. In the case of `Clc1ccc(Cl)cc1` [1,4-Dichlorobenzene], the melting point was 53 °C. Compound `OC(CS)C(O)CS` (stereo not given) [1,4-Disulfanylbutane-2,3-diol] has a melting point of 43 °C. `O=C(O)C1COc2ccccc2O1` (stereo not given) [1,4-benzodioxane-2-carboxylic acid] gave a melting point of 124 °C. In the case of `O=S(=O)(Cl)c1ccc2c(c1)OCCO2` [1,4-benzodioxane-6-sulfonyl chloride], the melting point was 66 °C. In the case of `ClC(Cl)c1ccc(C(Cl)Cl)cc1` [1,4-bis(dichloromethyl)benzene], the melting point was 93 °C. For `O=C1CCC(=O)CC1` [1,4-cyclohexanedione], the melting point was 78 °C. In the case of `CC(C)(C)c1ccc(C(C)(C)C)cc1` [1,4-di-tert-butylbenzene], the melting point was 77 °C. In the case of `CC(=O)OCCCCOC(C)=O` [1,4-diacetoxybutane], the melting point was 13 °C. Compound `BrCCCCBr` [1,4-dibromobutane] has a melting point of -17 °C. `CC(Br)CCCBr` (stereo not given) [1,4-dibromopentane] [listing 1 of 2 here] showed a melting point of -34 °C. With `CC(Br)CCCBr` (stereo not given) [1,4-dibromopentane] [listing 2 of 2 here] the melting point was -34 °C. With `Clc1ccc(Cl)cc1` [1,4-dichlorobenzene] the melting point was 53 °C and 55 °C. `ClCCCCCl` [1,4-dichlorobutane] showed a melting point of -37 °C. In the case of `N#Cc1ccc(C#N)cc1` [1,4-dicyanobenzene], the melting point was 226 °C. Compound `N#CCCCCC#N` [1,4-dicyanobutane] has a melting point of 2 °C. In the case of `C1COCCO1` [1,4-dioxane], the melting point was 12 °C. Compound `N#CCc1ccc(CC#N)cc1` [1,4-phenylenediacetonitrile] has a melting point of 96 °C. Compound `O=C(C=Cc1ccccc1)C=Cc1ccccc1` [1,5-Diphenylpenta-1,4-dien-3-one] has a melting point of 111 °C. `OCCCCCO` [1,5-pentanediol] gave a melting point of -16 °C. Compound `BrCCCCCCBr` [1,6-Dibromohexane] has a melting point of 2 °C. `O=C(O)c1cc2cc(Br)ccc2c(Br)c1O` [1,6-dibromo-2-hydroxynaphthalene-3-carboxylic acid] gave a melting point of 251 °C. Compound `C1CCC2=NCCCN2CC1` [1,8-diazabicyclo[5.4.0]undec-7-ene] has a melting point of -70 °C. With `OCCCCCCCCO` [1,8-octanediol] the melting point was 60 °C. Work on `N#CCCCCCCCCCCC#N` [1,10-decanedicarbonitrile] yielded a melting point of 18 °C. For `OCCCCCCCCCCO` [1,10-decanediol], the melting point was 73 °C. Work on `c1cnc2c(c1)ccc1cccnc12` [1,10-phenanthroline, anhydrous] yielded a melting point of 118 °C. `CC(=O)c1ccco1` [1-(2-Furyl)ethanone] gave a melting point of 29.5 °C. For `COc1ccccc1N1CCNCC1` [1-(2-methoxyphenyl)piperazine], the melting point was 37 °C. `O=C(CC(=O)C(F)(F)F)c1cccs1` [1-(2-thenoyl)-3,3,3-trifluoroacetone] gave a melting point of 43 °C. For `Oc1ccc2ccccc2c1N=Nc1nccs1` [1-(2-thiazolylazo)-2-naphthol], the melting point was 139 °C. `CCC(=O)c1ccc(Cl)cc1` [1-(4-Chlorophenyl)propan-1-one] showed a melting point of 35.5 °C. With `CC(=O)c1ccc(I)cc1` [1-(4-Iodophenyl)ethanone] the melting point was 84.8 °C and 85.3 °C. Work on `O=[N+]([O-])c1ccc(N2CCCCC2)cc1` [1-(4-nitrophenyl)piperidine] yielded a melting point of 104 °C.
